# ChEMBL document CHEMBL1131841, “Hydroxyoxazolidines as alpha-aminoacetaldehye equivalents: novel inhibitors of calpain” (Bioorg Med Chem Lett, 1999)
# pKi: −log10 of the molar value. Where a SMILES comes first, the peptide text is derived from it. [ ]: non-standard residue; d: D form. The star is where a group is joined. ξ: configuration not given here. NMeF = CN[C@@H](Cc1ccccc1)C(=O)O; Cbz = O=C(OCc1ccccc1)*; ξV = CC(C)C(N)C(=O)O
# Columns and labels:
# [1] = target: T1, Calpain-1 catalytic subunit (Homo sapiens, UniProt P07384); experiment: Tested for inhibitory activity against calpain
# T1 sequence (P07384 whole entry): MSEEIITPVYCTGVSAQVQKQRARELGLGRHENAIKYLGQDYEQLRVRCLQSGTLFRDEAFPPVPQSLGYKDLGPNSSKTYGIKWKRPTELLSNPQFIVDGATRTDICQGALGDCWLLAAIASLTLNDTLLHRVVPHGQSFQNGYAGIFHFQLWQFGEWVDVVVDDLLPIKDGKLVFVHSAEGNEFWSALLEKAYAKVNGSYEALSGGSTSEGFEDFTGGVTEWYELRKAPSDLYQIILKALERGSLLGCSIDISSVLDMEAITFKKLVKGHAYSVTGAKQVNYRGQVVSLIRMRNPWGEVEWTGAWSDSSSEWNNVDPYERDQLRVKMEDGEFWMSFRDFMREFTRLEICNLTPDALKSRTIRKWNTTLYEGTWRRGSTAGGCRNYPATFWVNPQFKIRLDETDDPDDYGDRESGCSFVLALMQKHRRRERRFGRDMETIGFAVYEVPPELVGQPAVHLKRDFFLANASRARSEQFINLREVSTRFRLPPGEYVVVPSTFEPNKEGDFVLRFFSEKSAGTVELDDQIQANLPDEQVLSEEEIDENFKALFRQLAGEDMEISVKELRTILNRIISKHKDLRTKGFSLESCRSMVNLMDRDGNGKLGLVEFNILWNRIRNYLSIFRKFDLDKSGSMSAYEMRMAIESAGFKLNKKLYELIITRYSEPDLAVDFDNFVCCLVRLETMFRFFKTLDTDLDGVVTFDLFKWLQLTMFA
# [2] = target: T1, Calpain-1 catalytic subunit; experiment: Tested for inhibitory activity against calpain; NA means Not active
# [3] = target: T1, Calpain-1 catalytic subunit; experiment: Tested for inhibitory activity against calpain.
# Cathepsin B = Cathepsin B (Bos taurus, UniProt P07688); experiment: Tested for inhibitory activity against bovine cathepsin B.
SMILES,pKi [3],other results
CC(=O)O[C@@H]1OCN(C(=O)C(NC(=O)OCc2ccccc2)C(C)C)[C@H]1Cc1ccccc1 (stereo not given in full),,pKi [1]: 5.70
CC(C)C(NC(=O)OCc1ccccc1)C(=O)N1C(=O)C[C@H](O)[C@@H]1Cc1ccccc1 (stereo not given in full),,Ki [2]: Not Active
CC(C)C(NC(=O)OCc1ccccc1)C(=O)N1CC[C@@H](O)[C@@H]1Cc1ccccc1 (stereo not given in full),,Ki [2]: Not Active
CC(C)C(NC(=O)OCc1ccccc1)C(=O)N(C)[C@H](C=O)Cc1ccccc1 (stereo not given in full) (Cbz-[ξV]-[NMeF]-aldehyde),6.40,
O=C1c2ccccc2C(=O)N1[C@H]1CCC[C@H]2O[C@@H](O)[C@H](Cc3ccccc3)N2C1=O.O=C1c2ccccc2C(=O)N1[C@H]1CCC[C@H]2O[C@H](O)[C@@H](Cc3ccccc3)N2C1=O,5.49,
O=C(N[C@H]1CCC[C@H]2O[C@@H](O)[C@H](Cc3ccccc3)N2C1=O)OCc1ccccc1.O=C(N[C@H]1CCC[C@H]2O[C@H](O)[C@@H](Cc3ccccc3)N2C1=O)OCc1ccccc1,5.82,
CC(C)C(NC(=O)OCc1ccccc1)C(=O)N(CO)[C@H](C=O)Cc1ccccc1 (stereo not given in full),6.40,

# Now from value to molecule, other results behind:
pKi [3],SMILES,other results
4.25,CC(C)[C@@H](NC(=O)OCc1ccccc1)C(=O)N1CCO[C@@H](O)[C@@H]1Cc1ccccc1,
7.48,CC(C)C(NC(=O)OCc1ccccc1)C(=O)N1CO[C@@H](O)[C@@H]1Cc1ccccc1 (stereo not given in full),pKi (Cathepsin B): 6.92
